{"source": "patent US6830897B2", "about": "“High throughput screen for reducing drug candidate attrition” (Pfizer Inc., priority 2000, dated 2004)", "origin": "cited, not measured here", "conditions": "toxicities linked to formation of reactive metabolites; literature reference in brackets"}
{"molecule": "CC(=O)Nc1ccc(O)cc1", "note": "[Acetaminophen]", "values": [{"measurement": "Toxicity (Ref.)", "value": "Hepato- toxicity (11)"}]}
{"molecule": "O=C1NC(=O)C(c2ccccc2)(c2ccccc2)N1", "note": "[Phenytoin]", "values": [{"measurement": "Toxicity (Ref.)", "value": "Hepato- toxicity (18)"}]}
{"molecule": "NC(=O)N1c2ccccc2C=Cc2ccccc21", "note": "[Carbamazepine]", "values": [{"measurement": "Toxicity (Ref.)", "value": "Hyper- sensitivity (13)"}]}
{"molecule": "CN1CCN(C2=Nc3cc(Cl)ccc3Nc3ccccc32)CC1", "note": "[Clozapine]", "values": [{"measurement": "Toxicity (Ref.)", "value": "Neutrophil Cyto-toxicity (12)"}]}
{"molecule": "CCCC(CCC)C(=O)O", "note": "[Valproic acid]", "values": [{"measurement": "Toxicity (Ref.)", "value": "Hepato- toxicity (17)"}]}
{"molecule": "Cc1cccc(O)c1", "note": "[m-Cresol]", "values": [{"measurement": "Toxicity (Ref.)", "value": "Circulatory collapse, death (16)"}]}
{"molecule": "COc1ccc(O)cc1", "note": "[4-hydroxyanisole]", "values": [{"measurement": "Toxicity (Ref.)", "value": "Hepato- toxicity (15)"}]}
{"molecule": "CC(C)c1ccc(O)cc1", "note": "[4-isopropylphenol]", "values": [{"measurement": "Toxicity (Ref.)", "value": "Circulatory collapse, death (16)"}]}
{"molecule": "COc1ccc2c(c1)c(CC(=O)O)c(C)n2C(=O)c1ccc(Cl)cc1", "note": "[Indomethacin]", "values": [{"measurement": "Toxicity (Ref.)", "value": "Neutrophil toxicity (14)"}]}
